According to patent US20190038209A1, “Using Spectral CT to Diagnose Thyroid Nodules” (BOARD OF REGENTS, THE UNIVERSITY OF TEXAS SYSTEM, priority 2016, published 2019):

Assay: Spectral CT iodine-no-water map of rat thyroid before and after oral potassium iodide
Format: in vivo
Conditions: Fischer rats, 654 mg potassium iodide (500 mg iodine) oral gavage, 10 hours of uptake; baseline 1.5 mg I/mL
Method: Next, a Philips IQon Spectral CT scanner was used to obtain in vivo animal data. Three healthy female Fischer rats ranging from 150 g to 250 g mass were each anesthetized using 2.5% isoflurane and scanned in a supine position using the highest resolution settings for the IQon Spectral CT clinical scanner (0.625 mm slice thickness with 0.20 mm in-plane pixel resolution). The baseline endogenous iodine levels within the rat thyroid were measured using the iodine-no-water map and averaged 1.5 mg I/mL. These levels are similar to the baseline endogenous iodine levels found within healthy human thyroid tissue. The rats were then each given a bolus dose of 654 mg of potassium iodide (equivalent to 500 mg of iodine) that was dissolved in 1 mL of water and administered orally using a gavage. After 10 hours of uptake the rats were again anesthetized with 2.5% isoflurane and scanned a second time on the IQon Spectral CT using the same settings as before. The iodine levels within the rat thyroid now averaged 3.0 mg I/mL, or a 100% increase in iodine. […] Generally, a 500 mg dose of oral iodine given to humans can increase the level of organified iodine in the thyroid tissue (after a full 24 hours of uptake) from 1.5 mg I/mL to 5-10 mg I/ml depending on total thyroid volume. […]

**Q.** For [I-].[K+] [potassium iodide], which “iodine levels within the rat thyroid (average)” value is on record?
**A.** 3.0 mg I/mL
